Test results: patent publication US7420001B2 (Wyeth, priority 2003, dated 2008)

Assays:
[1] = molecular target: T1, MMP-2 (Homo sapiens, UniProt P08253); test: In-vitro fluorescence assay of MMP-2 activity; format: biochemical; conditions: recombinant human MMP-2; read-out: MMP-2 IC50
T1 construct: purchased Oncogene Research Products (Calbiochem) PF023
T1 sequence (P08253 110-660): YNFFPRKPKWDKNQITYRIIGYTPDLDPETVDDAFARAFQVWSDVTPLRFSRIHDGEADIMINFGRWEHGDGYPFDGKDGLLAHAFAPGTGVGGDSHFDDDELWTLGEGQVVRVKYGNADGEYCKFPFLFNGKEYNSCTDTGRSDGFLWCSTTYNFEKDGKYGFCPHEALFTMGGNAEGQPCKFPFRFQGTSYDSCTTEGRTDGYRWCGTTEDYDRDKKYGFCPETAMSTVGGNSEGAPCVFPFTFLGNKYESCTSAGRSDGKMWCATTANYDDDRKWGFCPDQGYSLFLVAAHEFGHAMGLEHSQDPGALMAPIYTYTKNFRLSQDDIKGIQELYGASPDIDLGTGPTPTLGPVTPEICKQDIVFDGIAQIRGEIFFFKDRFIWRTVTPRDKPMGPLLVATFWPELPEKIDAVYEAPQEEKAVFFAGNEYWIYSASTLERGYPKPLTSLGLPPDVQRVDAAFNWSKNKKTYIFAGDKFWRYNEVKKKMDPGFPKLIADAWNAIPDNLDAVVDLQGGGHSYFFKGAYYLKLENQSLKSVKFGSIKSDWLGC

[2] = molecular target: T2, MMP-13 (Homo sapiens, UniProt P45452); test: In-vitro fluorescence assay of MMP-13 activity; format: biochemical; conditions: recombinant human catalytic domain of MMP-13; read-out: MMP-13 IC50
T2 construct: made in house

| Structure (SMILES) | IC50 [1] [nM] | IC50 [2] [nM] |
| --- | --- | --- |
| Cc1c(C(=O)Nc2ccc(-c3ccc(S(=O)(=O)N[C@H](C(=O)O)C(C)C)cc3)cc2)oc2ccc(Cl)c(OC(C)C)c12 [Example 115, (S)-2-{4′-[(5-Chloro-4-isopropoxy-3-methyl-benzofuran-2-carbonyl)-amino]-biphenyl-4-sulfonylamino}-3-methyl-butyric acid] | 3010 | 11 |
| COc1c(I)ccc2oc(C(=O)Nc3ccc(-c4ccc(S(=O)(=O)N[C@H](C(=O)O)C(C)C)cc4)cc3)c(C)c12 [Example 120, (S)-2-{4′-[(5-Iodo-4-methoxy-3-methyl-benzofuran-2-carbonyl)-amino]-biphenyl-4-sulfonylamino}-3-methyl-butyric acid] | 1370 | 2.1 |
| COc1c(C)ccc2oc(C(=O)Nc3ccc(-c4ccc(S(=O)(=O)N[C@H](C(=O)O)C(C)C)cc4)cc3)c(C)c12 [Example 125, (S)-2-{4′-[(5-Methyl-4-methoxy-3-methyl-benzofuran-2-carbonyl)-amino]-biphenyl-4-sulfonylamino}-3-methyl-butyric acid] | 1610 | 4.9 |
| COc1c(Br)ccc2oc(C(=O)Nc3ccc(-c4ccc(S(=O)(=O)NC(C(=O)O)C(C)C)cc4)cc3)c(C)c12 (stereo in doubt) [Example 119, (R)-2-{4′-[(5-Bromo-4-methoxy-3-methyl-benzofuran-2-carbonyl)-amino]-biphenyl-4-sulfonylamino}-3-methyl-butyric acid] | 688 | 3.4 |
| CC(Oc1cccc2oc(C(=O)Nc3ccc(-c4ccc(S(=O)(=O)N[C@H](C(=O)O)C(C)C)cc4)cc3)cc12)C(=O)O (stereo partly drawn) [Example 14, 4′-{[4-(1-Carboxy-ethoxy)-benzofuran-2-carbonyl]-amino}-biphenyl-4-sulfonyl-L-valine] | 916 | 11 |

Second part, the compound after the results:

| IC50 [1] [nM] | IC50 [2] [nM] | Structure (SMILES) |
| --- | --- | --- |
| 2340 | 16 | Cc1c(C(=O)Nc2ccc(-c3ccc(S(=O)(=O)N[C@H](C(=O)O)C(C)C)cc3)cc2)oc2cccc(NS(=O)(=O)C(C)C)c12 [Example 69, L-3-Methyl-2-(4′-{[3-methyl-4-(propane-2-sulfonylamino)-benzofuran-2-carbonyl]-amino}-biphenyl-4-sulfonylamino)-butyric acid] |
| 3470 | 14 | CCS(=O)(=O)N(C)c1cccc2oc(C(=O)Nc3ccc(-c4ccc(S(=O)(=O)N[C@H](C(=O)O)C(C)C)cc4)cc3)c(C)c12 [Example 70, L-2-(4′-{[4-(Ethanesulfonyl-methyl-amino)-3-methyl-benzofuran-2-carbonyl]-amino}-biphenyl-4-sulfonylamino)-3-methyl-butyric acid] |
| 3000 | 21 | Cc1c(C(=O)Nc2ccc(-c3ccc(S(=O)(=O)N[C@H](C(=O)O)C(C)C)cc3)cc2)oc2cccc(C#CC3CC3)c12 [Example 23, 2-{4′-[(4-Cyclopropylethynyl-3-methyl-benzofuran-2-carbonyl)-amino]-biphenyl-4-sulfonylamino}-3-methyl-butyric acid] |
| 1.5 | 0.7 | COc1ccc2oc(C(=O)Nc3ccc(-c4ccc(S(=O)(=O)N[C@H](C(=O)O)C(C)C)cc4)cc3)cc2c1 [Example 104, N-[(4′-{[(5-methoxy-1-benzofuran-2-yl)carbonyl]amino}-1,1′-biphenyl-4-yl)sulfonyl]-L-valine] |
| 4770 | 11.9 | Cc1c(C(=O)Nc2ccc(-c3ccc(S(=O)(=O)N[C@H](C(=O)O)C(C)C)cc3)cc2)oc2cccc(N3CCCS3(=O)=O)c12 [Example 73, L-2-(4′-{[4-(1,1-Dioxo-1λ^6-isothiazolidin-2-yl)-3-methyl-benzofuran-2-carbonyl]-amino}-biphenyl-4-sulfonylamino)-3-methyl-butyric acid] |
| 625 | 4.4 | C=Cc1cccc2oc(C(=O)Nc3ccc(-c4ccc(S(=O)(=O)N[C@H](C(=O)O)C(C)C)cc4)cc3)c(C)c12 [Example 96, N-[(4′-{[(3-methyl-4-vinyl-1-benzofuran-2-yl)carbonyl]amino}-1,1′-biphenyl-4-yl)sulfonyl]-L-valine] |
